Patent US20240199618A1, “NOVEL N-ACYL-[3-SUBSTITUTED]-[8-SUBSTITUTED]-5,6-DIHYDRO-[1,2,4]TRIAZOLO[4,3-a]PYRAZINES AS SELECTIVE NK-3 RECEPTOR ANTAGONISTS, PHARMACEUTICAL COMPOSITION, METHODS FOR USE IN NK-3 RECEPTOR-MEDIATED DISORDERS” (Ogeda SA, priority 2013, published 2024)
Where two headings read alike, the source gives them in different places.

Legend:
[1] = biological target: T1, human NK-3 receptor (Homo sapiens (Human), UniProt P29371); assay: Aequorin functional assay with human NK-3 receptor (antagonist testing vs NKA); format: cell-based; conditions: CHO cells, NKA at EC80 (3 nM); read-out: Functional assay: Aequorin assay with human NK-3 receptor hNK-3-AEQ (antagonist IC50)
Method: Aequorin Assay with Human NK-3 Receptor
Changes in intracellular calcium levels are a recognized indicator of G protein-coupled receptor activity. The efficacy of compounds of the invention to inhibit NKA-mediated NK-3 receptor activation was assessed by an in vitro Aequorin functional assay. Chinese Hamster Ovary recombinant cells expressing the human NK-3 receptor and a construct that encodes the photoprotein apoaequorin were used for this assay. In the presence of the cofactor coelenterazine, apoaequorin emits a measurable luminescence that is proportional to the amount of intracellular (cytoplasmic) free calcium.
The antagonist activity of compounds of the invention is measured following pre-incubation (3 minutes) of the compound (at various concentrations) with the cells, followed by addition of the reference agonist (NKA) at a final concentration equivalent to the EC80 (3 nM) and recording of emitted light (FDSS 6000 Hamamatsu) over the subsequent 90-second period. The intensity of the emitted light is integrated using the reader software. Compound antagonist activity is measured based on the concentration-dependent inhibition of the luminescence response to the addition of Neurokinin A.

[2] = biological target: human NK-2 receptor (Homo sapiens (Human), UniProt P21452); assay: Selectivity assay: [125I]-Neurokinin A binding, human NK-2 receptor; conditions: 0.1 nM [125I]-Neurokinin A, CHO membranes; read-out: hNK-2 (Ki)
Method: The affinity of compounds of the invention for the NK-2 receptor was evaluated in CHO recombinant cells which express the human NK-2 receptor. Membrane suspensions were prepared from these cells. […] Binding assays were performed in a 25 mM HEPES/1 mM CaCl2)/5 mM MgCl2/0.5% BSA/10 μg/ml saponin, at pH 7.4. […] The radioactivity retained on the filters was measured by using the TopCount-NXT reader (Packard).

[3] = biological target: human NK-1 receptor (Homo sapiens (Human), UniProt P25103); assay: Selectivity assay: [3H] substance P binding, human NK-1 receptor; conditions: 2 nM [3H] substance P, CHO membranes; read-out: hNK-1 (Ki)
Method: Selectivity of the compounds of the invention was determined over the other human NK receptors, namely NK-1 and NK-2 receptors.
The affinity of compounds of the invention for the NK-1 receptor was evaluated in CHO recombinant cells which express the human NK-1 receptor. Membrane suspensions were prepared from these cells. The following radioligand: [^3H] substance P (PerkinElmer Cat #NET111520) was used in this assay. Binding assays were performed in a 50 mM Tris/5 mM MnCl2/150 mM NaCl/0.1% BSA at pH 7.4. Binding assays consisted of 25 μl of membrane suspension (approximately 5 μg of protein/well in a 96 well plate), 50 μl of compound or reference ligand (Substance P) at increasing concentrations (diluted in assay buffer) and 2 nM [^3H] substance P. The plate was incubated 60 min at 25° C. in a water bath and then filtered over GF/C filters (Perkin Elmer, 6005174, presoaked in 0.5% PEI for 2 h at room temperature) with a Filtration unit (Perkin Elmer). The radioactivity retained on the filters was measured by using the TopCount-NXT reader (Packard).

[4] = test system: plasma protein; assay: Determination of plasma protein binding (equilibrium dialysis, RED); format: in vitro ADME; conditions: 4 hours at 37° C.
From the text: Determination of plasma protein binding The pharmacokinetic and pharmacodynamic properties of chemicals/drugs are largely a function of the reversible binding of chemicals to plasma or serum proteins. […] Consequently, the extent of the plasma protein binding (PPB) of a compound influences its action as well as its distribution and elimination.
The determination of plasma protein binding (PPB) of a compound is enabled by equilibrium dialysis, an accepted and standard method for reliable estimation of the non-bound drug fraction in plasma. RED (Rapid Equilibrium Dialysis) device insert is made of two side-by-side chambers separated by an O-ring-sealed vertical cylinder of dialysis membrane (MWCO ˜8,000). […] After 4 hours incubation at 37° C. under shaking, an aliquot is removed from each chamber and analyzed by a LC-MS/MS procedure enables the determination of both free and bound drug.
The “free fraction” may be calculated as 100%−% rPPB (i.e. the complementary percentage of that disclosed in Table 4, corresponding to the drug concentration that is unbound and therefore available to engage biological target and elicit pharmacological activity).

[5] = biological target: T1, human NK-3 receptor; assay: 3H-SB222200 binding competition assay with human NK-3 receptor
Method: The affinity of compounds of the invention for the human NK-3 receptor was determined by measuring the ability of compounds of the invention to competitively and reversibly displace a well-characterized NK-3 radioligand in a concentration-dependent manner.
^3H-SB222200 Binding Competition Assay with Human NK-3 Receptor
Membranes were prepared from Chinese hamster ovary recombinant cells stably expressing the human NK-3 receptor. The membranes were incubated with 5 nM ^3H-SB222200 (ARC) in a HEPES 25 mM/NaCl 0.1M/CaCl2 1 mM/MgCl2 5 mM/BSA 0.5%/Saponin 10 μg/ml buffer at pH 7.4 and various concentrations of compounds of the invention. The amount of ^3H-SB222200 bound to the receptor was determined after filtration by the quantification of membrane associated radioactivity using the TopCount-NXT reader (Packard).

[6] = Table 2, 5 nM 3H-SB222200, CHO membranes, read-out: Competitive binding assay with human NK-3 receptor hNK-3 (Ki)
[7] = Table 3 (selectivity table), read-out: hNK-3 (Ki)

Chain of human NK-1 receptor (P25103 whole entry): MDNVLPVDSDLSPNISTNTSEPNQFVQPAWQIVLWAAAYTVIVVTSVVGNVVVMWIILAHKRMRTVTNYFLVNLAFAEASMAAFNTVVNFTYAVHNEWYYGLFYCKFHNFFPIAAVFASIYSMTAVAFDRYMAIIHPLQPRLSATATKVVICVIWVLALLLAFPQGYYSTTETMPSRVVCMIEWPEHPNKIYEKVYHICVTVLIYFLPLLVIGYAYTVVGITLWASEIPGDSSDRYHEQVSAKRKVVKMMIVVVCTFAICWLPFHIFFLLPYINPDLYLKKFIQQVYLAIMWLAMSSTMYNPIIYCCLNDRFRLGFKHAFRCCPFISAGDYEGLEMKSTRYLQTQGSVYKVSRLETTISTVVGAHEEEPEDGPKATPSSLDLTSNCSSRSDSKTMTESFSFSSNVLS
T1 sequence (P29371 whole entry): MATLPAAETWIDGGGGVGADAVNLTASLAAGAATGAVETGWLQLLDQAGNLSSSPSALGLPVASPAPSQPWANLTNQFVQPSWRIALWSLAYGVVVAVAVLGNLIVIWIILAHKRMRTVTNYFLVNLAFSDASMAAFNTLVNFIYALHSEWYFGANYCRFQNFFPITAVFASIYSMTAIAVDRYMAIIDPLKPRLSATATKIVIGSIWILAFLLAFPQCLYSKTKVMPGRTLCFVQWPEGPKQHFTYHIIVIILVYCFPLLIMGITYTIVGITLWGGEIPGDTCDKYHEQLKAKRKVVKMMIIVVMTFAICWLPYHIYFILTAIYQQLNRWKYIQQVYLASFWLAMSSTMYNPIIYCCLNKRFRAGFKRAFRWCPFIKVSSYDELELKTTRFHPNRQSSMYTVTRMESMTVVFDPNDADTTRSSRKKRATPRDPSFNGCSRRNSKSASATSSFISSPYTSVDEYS
Chain of human NK-2 receptor (P21452 whole entry): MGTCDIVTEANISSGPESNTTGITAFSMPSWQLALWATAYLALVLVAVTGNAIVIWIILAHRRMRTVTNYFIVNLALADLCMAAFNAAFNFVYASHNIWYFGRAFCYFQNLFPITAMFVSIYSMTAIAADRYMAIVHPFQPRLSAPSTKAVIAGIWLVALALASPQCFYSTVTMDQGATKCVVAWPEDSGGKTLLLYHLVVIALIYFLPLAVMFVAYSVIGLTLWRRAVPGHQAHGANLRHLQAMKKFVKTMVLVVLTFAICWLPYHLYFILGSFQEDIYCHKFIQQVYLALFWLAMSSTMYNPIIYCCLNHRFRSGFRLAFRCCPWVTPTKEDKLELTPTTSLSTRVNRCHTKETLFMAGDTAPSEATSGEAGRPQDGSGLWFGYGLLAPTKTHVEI

| Structure (SMILES) | IC50 [1] [nM] | Ki [2] [nM] | Ki [3] [nM] | Exposure (% rPPB), bound drug fraction to plasma protein [4] [%] | Ki [5, 6] [nM] | Ki [5, 7] [nM] |
| --- | --- | --- | --- | --- | --- | --- |
| CC(F)c1noc(-c2nnc3n2CCN(C(=O)c2ccc(F)cc2)[C@@H]3C)n1 (single isomer, unassigned) [Compound 45-1] | 285 | > 30000 | > 30000 | 27 | 100 | 100 |
| CC(F)c1noc(-c2nnc3n2CCN(C(=O)c2ccc(F)cc2)[C@@H]3C)n1 (single isomer, unassigned) [Compound 45-2] | 148 | > 30000 | > 30000 | 33 | 83 | 83 |
| Cc1nsc(-c2nnc3n2CCN(C(=O)c2ccc(F)c(Cl)c2)[C@@H]3C)n1 [Compound 6, (R)-(3-chloro-4-fluorophenyl)(8-methyl-3-(3-methyl-1,2,4-thiadiazol-5-yl)-5,6-dihydro-[1,2,4]triazolo[4,3-a]pyrazin-7(8H)-yl)methanone] | 30 | 25000 | 22100 | 53 | 24 | 24 |
| Cc1nsc(-c2nnc3n2CCN(C(=O)c2cc(F)c(F)c(F)c2)[C@@H]3C)n1 [Compound 7, (R)-(8-methyl-3-(3-methyl-1,2,4-thiadiazol-5-yl)-5,6-dihydro-[1,2,4]triazolo[4,3-a]pyrazin-7(8H)-yl)(3,4,5-trifluorophenyl)methanone] | 30 | 36000 | > 30000 | 26 | 26 | 26 |
| Cc1nsc(-c2nnc3n2CCN(C(=O)c2cc(F)c(F)c(F)c2F)[C@@H]3C)n1 [Compound 10, (R)-(8-methyl-3-(3-methyl-1,2,4-thiadiazol-5-yl)-5,6-dihydro-[1,2,4]triazolo[4,3-a]pyrazin-7(8H)-yl)(2,3,4,5-tetrafluorophenyl)methanone] | 56 | 49000 | > 30000 | 30 | 31 | 31 |
| Cc1nsc(-c2nnc3n2CCN(C(=O)c2cccc(F)c2)[C@@H]3C)n1 [Compound 15, (R)-(3-fluorophenyl)(8-methyl-3-(3-methyl-1,2,4-thiadiazol-5-yl)-5,6-dihydro-[1,2,4]triazolo[4,3-a]pyrazin-7(8H)-yl)methanone] | 50 | > 30000 | > 30000 | 20 | 45 | 45 |
| Cc1nsc(-c2nnc3n2CCN(C(=O)c2cccc(Cl)c2)[C@@H]3C)n1 [Compound 16, (R)-(3-chlorophenyl)(8-methyl-3-(3-methyl-1,2,4-thiadiazol-5-yl)-5,6-dihydro-[1,2,4]triazolo[4,3-a]pyrazin-7(8H)-yl)methanone] | 71 | 37000 | > 30000 | 36 | 49 | 49 |
| Cc1nsc(-c2nnc3n2CCN(C(=O)c2cc(F)cc(F)c2)[C@@H]3C)n1 [Compound 17, (R)-(3,5-difluorophenyl)(8-methyl-3-(3-methyl-1,2,4-thiadiazol-5-yl)-5,6-dihydro-[1,2,4]triazolo[4,3-a]pyrazin-7(8H)-yl)methanone] | 50 | > 30000 | > 30000 | 24 | 51 | 51 |
| Cc1nsc(-c2nnc3n2CCN(C(=O)c2ccc(F)cc2F)[C@@H]3C)n1 [Compound 18, (R)-(2,4-difluorophenyl)(8-methyl-3-(3-methyl-1,2,4-thiadiazol-5-yl)-5,6-dihydro-[1,2,4]triazolo[4,3-a]pyrazin-7(8H)-yl)methanone] | 87 | > 30000 | > 30000 | 23 | 54 | 54 |
| COc1cc(C(=O)N2CCn3c(-c4nc(C)ns4)nnc3[C@H]2C)ccc1F [Compound 25, (R)-(4-fluoro-3-methoxyphenyl)(8-methyl-3-(3-methyl-1,2,4-thiadiazol-5-yl)-5,6-dihydro-[1,2,4]triazolo[4,3-a]pyrazin-7(8H)-yl)methanone] | 110 | > 30000 | > 30000 | 19 | 85 | 85 |

The remaining lines, values ahead:

| IC50 [1] [nM] | Ki [2] [nM] | Ki [3] [nM] | Exposure (% rPPB), bound drug fraction to plasma protein [4] [%] | Ki [5, 6] [nM] | Ki [5, 7] [nM] | Structure (SMILES) |
| --- | --- | --- | --- | --- | --- | --- |
| 110 | > 30000 | > 30000 | 51 | 56 | 56 | Cc1ccc(C(=O)N2CCn3c(-c4nc(C)ns4)nnc3[C@H]2C)cc1 [Compound 19, (R)-(8-methyl-3-(3-methyl-1,2,4-thiadiazol-5-yl)-5,6-dihydro-[1,2,4]triazolo[4,3-a]pyrazin-7(8H)-yl)(p-tolyl)methanone] |
| 150 | > 30000 | > 30000 | 38 | 63 | 63 | Cc1nsc(-c2nnc3n2CCN(C(=O)c2ccc(C(F)(F)F)cc2)[C@@H]3C)n1 [Compound 21, (R)-(8-methyl-3-(3-methyl-1,2,4-thiadiazol-5-yl)-5,6-dihydro-[1,2,4]triazolo[4,3-a]pyrazin-7(8H)-yl)(4-(trifluoromethyl)phenyl)methanone] |
| 130 | > 30000 | > 30000 | 27 | 69 | 69 | CC[C@@H]1c2nnc(-c3nc(C)ns3)n2CCN1C(=O)c1ccc(F)cc1 [Compound 22, (R)-(8-ethyl-3-(3-methyl-1,2,4-thiadiazol-5-yl)-5,6-dihydro-[1,2,4]triazolo[4,3-a]pyrazin-7(8H)-yl)(4-fluorophenyl)methanone] |
| 120 | > 30000 | > 30000 | 48 | 78 | 78 | CCC[C@@H]1c2nnc(-c3nc(C)ns3)n2CCN1C(=O)c1ccc(F)cc1 [Compound 24, (R)-(4-fluorophenyl)(3-(3-methyl-1,2,4-thiadiazol-5-yl)-8-propyl-5,6-dihydro-[1,2,4]triazolo[4,3-a]pyrazin-7(8H)-yl)methanone] |
